This note sets out measurements from PubChem BioAssay AID330 (DTP/NCI, 2004).

Where “and” joins values, the source holds several entries; their conditions need not be identical. Equal values may be shown once. Inconclusive results and toxic doses are left out.

The test system of the assay is P388 leukemia ip, CD2F1 mice, survival T/C. The assay is described as follows: NCI In Vivo Anticancer Drug Screen. Data for tumor model P388 Leukemia (intraperitoneal) in CD2F1 (CDF1) mice. The conditions noted are these: endpoint: median survival time, higher = longer survival. In short, it runs like this: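 Mice carrying the transplanted tumor received test compound or vehicle. Survival was recorded in each group, and the value is the treated-group measurement divided by that of the vehicle-treated control group.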

Setting [1] is: dose: 50.0 mg/kg/injection, schedule: Q01DX005 (ip), vehicle: Klucel (hydroxypropylcellulose) (HPC).
Setting [2] is: dose: 100.0 mg/kg/injection, schedule: Q01DX005 (ip), vehicle: Klucel (hydroxypropylcellulose) (HPC).
The mark [3] stands for this setting: dose: 50.0 mg/kg/injection, schedule: Q01DX005 (ip), vehicle: saline with Tween-80.
The mark [4] stands for this setting: dose: 100.0 mg/kg/injection, schedule: Q01DX005 (ip), vehicle: saline with Tween-80.
[5] abbreviates: dose: 200.0 mg/kg/injection, schedule: Q01DX005 (ip), vehicle: saline with Tween-80.
Where [6] appears, read: dose: 0.5 mg/kg/injection, schedule: Q01DX009 (ip), vehicle: water.
Where [7] appears, read: dose: 1.0 mg/kg/injection, schedule: Q01DX009 (ip), vehicle: water.
Where [8] appears, read: dose: 2.0 mg/kg/injection, schedule: Q01DX009 (ip), vehicle: water.
Where [9] appears, read: dose: 4.0 mg/kg/injection, schedule: Q01DX009 (ip), vehicle: water.
Where [10] appears, read: dose: 8.0 mg/kg/injection, schedule: Q01DX009 (ip), vehicle: water.
[11] abbreviates: dose: 60.0 mg/kg/injection, schedule: Q01DX005 (ip), vehicle: saline with Tween-80.
[12] abbreviates: dose: 120.0 mg/kg/injection, schedule: Q01DX005 (ip), vehicle: saline with Tween-80.
Setting [13] is: dose: 240.0 mg/kg/injection, schedule: Q01DX005 (ip), vehicle: saline with Tween-80.
The mark [14] stands for this setting: dose: 50.0 mg/kg/injection, schedule: Q01DX009 (ip), vehicle: saline with Tween-80.
Setting [15] is: dose: 100.0 mg/kg/injection, schedule: Q01DX009 (ip), vehicle: saline with Tween-80.
Setting [16] is: dose: 200.0 mg/kg/injection, schedule: Q01DX009 (ip), vehicle: saline with Tween-80.
Where [17] appears, read: dose: 100.0 mg/kg/injection, schedule: Q04DX003 (ip), vehicle: saline.
The mark [18] stands for this setting: dose: 50.0 mg/kg/injection, schedule: Q01DX009 (ip), vehicle: Klucel (hydroxypropylcellulose) (HPC).
Setting [19] is: dose: 100.0 mg/kg/injection, schedule: Q01DX009 (ip), vehicle: Klucel (hydroxypropylcellulose) (HPC).
Setting [20] is: dose: 50.0 mg/kg/injection, schedule: Q01DX009 (ip), vehicle: saline.
[21] abbreviates: dose: 100.0 mg/kg/injection, schedule: Q04DX003 (ip), vehicle: saline with Tween-80.
The mark [22] stands for this setting: dose: 200.0 mg/kg/injection, schedule: Q04DX003 (ip), vehicle: saline with Tween-80.
Where [23] appears, read: dose: 400.0 mg/kg/injection, schedule: Q04DX003 (ip), vehicle: saline with Tween-80.

With `COc1nc(C(Br)Br)c([N+](=O)[O-])c(N2CCOCC2)n1`, the T/C (dose: 25.0 mg/kg/injection, schedule: Q01DX005 (ip), vehicle: Klucel (hydroxypropylcellulose) (HPC)) was 109 % of control; the T/C under setting [1] is 101 % of control; the T/C under setting [2] was 87 % of control.
As to `C=C(CCCC(C)(C)OCOCCOC)[Si](C)(C)C`, the T/C was 101 % of control under setting [3], 100 % of control under setting [4] and 102 % of control under setting [5].
With `Cc1c(N)nc([C@H](CC(N)=O)NC[C@H](N)C(N)=O)nc1C(=O)N[C@H](C(=O)N[C@H](C)[C@@H](O)CC(=O)N[C@H](C(=O)NC(O[C@@H]1O[C@@H](C)[C@@H](N)[C@@H](O)[C@H]1O)C(O)c1nc(-c2nc(C(=O)NCCCCN)cs2)cs1)[C@@H](C)O)[C@@H](O[C@@H]1O[C@@H](CO)[C@@H](O)[C@H](O)[C@@H]1O[C@H]1O[C@H](CO)[C@@H](O)[C@H](OC(N)=O)[C@@H]1O)c1c[nH]cn1` (some centres not stated), the T/C is, setting by setting: under setting [6], 101 % of control; under setting [7], 98 % of control; under setting [8], 124 % of control; under setting [9], 95 % of control; under setting [10], 123 % of control.
Turning to `CC12OC(=O)CC1OC2(c1ccccc1)c1ccccc1` (configuration not stated), the T/C was 96 % of control under setting [11], 93 % of control under setting [12] and 90 % of control under setting [13].
On to `CCOC(=O)c1ccc(NC(CCl)=NC(C)(C)C)cc1`, for which the T/C is, setting by setting: under setting [14], 86 % of control; under setting [15], 100 % of control; under setting [16], 90 % of control.
On to `Nc1c(Cl)cc(C(=O)NC2CC2)cc1Cl`, for which the T/C is 94 % of control and 95 % of control (dose: 25.0 mg/kg/injection, schedule: Q01DX009 (ip), vehicle: saline with Tween-80); 100 % of control and 88 % of control under setting [14]; 102 % of control and 113 % of control under setting [15]; 109 % of control and 89 % of control under setting [16].
On to `COc1cc(C2NCCc3cc4c(cc32)OCO4)cc(OC)c1OC` (configuration not stated), for which the T/C was 100 % of control under setting [3] and 100 % of control under setting [4].
On to `COc1cc2c(cc1OC)C1CC(CC3CCCCN31)OC(=O)/C=C\c1ccc(O)c-2c1` (configuration not stated), for which the T/C is 105 % of control (dose: 25.0 mg/kg/injection, schedule: Q04DX003 (ip), vehicle: saline); 111 % of control (dose: 50.0 mg/kg/injection, schedule: Q04DX003 (ip), vehicle: saline); 102 % of control and 86 % of control under setting [17].
Turning to `CCOC(=O)Cc1csc(/C=C/c2ccc(OC)c(OC)c2)n1`, the T/C is, setting by setting: under setting [11], 96 % of control; under setting [12], 96 % of control; under setting [13], 90 % of control.
`COC(=O)C(COS(=O)(=O)c1ccc(C)cc1)NC(=O)OCc1ccc(OC)cc1` (configuration not stated): the T/C is 98 % of control (dose: 12.5 mg/kg/injection, schedule: Q01DX009 (ip), vehicle: water); 95 % of control (dose: 25.0 mg/kg/injection, schedule: Q01DX009 (ip), vehicle: water); 89 % of control (dose: 50.0 mg/kg/injection, schedule: Q01DX009 (ip), vehicle: water); 91 % of control (dose: 100.0 mg/kg/injection, schedule: Q01DX009 (ip), vehicle: water); 91 % of control (dose: 200.0 mg/kg/injection, schedule: Q01DX009 (ip), vehicle: water).
For `c1ccc(C2=NC(c3ccccc3)=NS(S3=NC(c4ccccc4)=NC(c4ccccc4)=N3)=N2)cc1` (configuration not stated), the T/C under setting [3] was 106 % of control, the T/C under setting [4] was 90 % of control and the T/C under setting [5] was 88 % of control.
In the case of `Cn1ccc2c3c(ccc21)C(N1CCOCC1)=CS(=O)(=O)O3`, the T/C was 104 % of control under setting [1]; 98 % of control under setting [2]; 100 % of control (dose: 200.0 mg/kg/injection, schedule: Q01DX005 (ip), vehicle: Klucel (hydroxypropylcellulose) (HPC)).
Consider `Cc1c(Cc2c(C)n(C)n(-c3ccccc3)c2=O)c(=O)n(-c2ccccc2)n1C`, for which the T/C is 100 % of control and 103 % of control (dose: 25.0 mg/kg/injection, schedule: Q01DX009 (ip), vehicle: Klucel (hydroxypropylcellulose) (HPC)); 106 % of control and 89 % of control under setting [18]; 99 % of control and 88 % of control under setting [19].
For the molecule `CC1(C)CC(=O)C2=C(C1)NC(=O)CC2`, the T/C runs as follows: under setting [11], 101 % of control; under setting [12], 101 % of control; under setting [13], 96 % of control.
For `COc1cccc2c1C(=O)c1c(O)c3c(c(O)c1C2=O)C[C@@](O)(C(C)=O)C[C@@H]3OC1CC([N+]([O-])(Cc2ccccc2)Cc2ccccc2)C(O)C(C)O1` (some centres not stated), the T/C is 114 % of control (dose: 3.13 mg/kg/injection, schedule: Q04DX003 (ip), vehicle: distilled water + Tween-80); 108 % of control and 121 % of control (dose: 6.25 mg/kg/injection, schedule: Q04DX003 (ip), vehicle: distilled water + Tween-80); 123 % of control (dose: 12.5 mg/kg/injection, schedule: Q04DX003 (ip), vehicle: distilled water + Tween-80); 150 % of control and 183 % of control (dose: 25.0 mg/kg/injection, schedule: Q04DX003 (ip), vehicle: distilled water + Tween-80); 185 % of control and 212 % of control (dose: 50.0 mg/kg/injection, schedule: Q04DX003 (ip), vehicle: distilled water + Tween-80); 237 % of control (dose: 100.0 mg/kg/injection, schedule: Q04DX003 (ip), vehicle: distilled water + Tween-80).
Turning to `CCOC(=O)N(C)C(=O)NC`, the T/C under setting [20] was 103 % of control and 105 % of control; the T/C (dose: 100.0 mg/kg/injection, schedule: Q01DX009 (ip), vehicle: saline) was 103 % of control and 109 % of control; the T/C (dose: 200.0 mg/kg/injection, schedule: Q01DX009 (ip), vehicle: saline) was 100 % of control and 104 % of control.
As to `CC(C)C(C(=O)O)N(C(=O)CN)C(=O)Cc1ccccc1` (configuration not stated), the T/C by setting is: under setting [14], 95 % of control; under setting [15], 93 % of control; under setting [16], 93 % of control.
With `CC/C(=N/NS(=O)(=O)c1ccc(C)cc1)c1ccc(O)cc1`, the T/C reads like this: under setting [17], 107 % of control; (dose: 200.0 mg/kg/injection, schedule: Q04DX003 (ip), vehicle: saline) 100 % of control; (dose: 400.0 mg/kg/injection, schedule: Q04DX003 (ip), vehicle: saline) 98 % of control.
Regarding `c1ccc2c3c([nH]c2c1)CCN1CCN(CCc2ccncc2)CC31` (configuration not stated), the T/C is 100 % of control (dose: 100.0 mg/kg/injection, schedule: Q04DX002 (ip), vehicle: Klucel (hydroxypropylcellulose) (HPC)); 101 % of control (dose: 200.0 mg/kg/injection, schedule: Q04DX002 (ip), vehicle: Klucel (hydroxypropylcellulose) (HPC)); 96 % of control (dose: 400.0 mg/kg/injection, schedule: Q04DX002 (ip), vehicle: Klucel (hydroxypropylcellulose) (HPC)).
Take `CCOC(=O)/C(C#N)=N/O`: the T/C by setting is: (dose: 6.25 mg/kg/injection, schedule: Q01DX009 (ip), vehicle: saline) 104 % of control and 114 % of control and 90 % of control; (dose: 12.5 mg/kg/injection, schedule: Q01DX009 (ip), vehicle: saline) 102 % of control and 104 % of control and 95 % of control; (dose: 25.0 mg/kg/injection, schedule: Q01DX009 (ip), vehicle: saline) 111 % of control and 97 % of control; under setting [20], 101 % of control and 104 % of control and 107 % of control.
In the case of `NC(C(=O)O)C(CC(=O)O)c1ccncc1` (configuration not stated), the T/C was 96 % of control under setting [21], 89 % of control under setting [22] and 98 % of control under setting [23].
Regarding `CSc1cccc(NC(=O)Nc2ccc(S(N)(=O)=O)cc2)c1`, the T/C by setting is: under setting [18], 92 % of control; under setting [19], 87 % of control.
Regarding `O=[N+]([O-])c1cccnc1Sc1ncccn1`, the T/C was 100 % of control under setting [21], 100 % of control under setting [22] and 100 % of control under setting [23].
Consider `COc1cccc2c1C(=O)c1c(O)c3c(c(O)c1C2=O)C[C@@](O)(C(C)NCCCO)C[C@@H]3OC1CC(N)C(O)C(C)O1` (some centres not stated), for which the T/C runs as follows: under setting [6], 122 % of control; under setting [7], 150 % of control; under setting [8], 154 % of control and 163 % of control; under setting [9], 163 % of control and 173 % of control; under setting [10], 174 % of control and 175 % of control; (dose: 16.0 mg/kg/injection, schedule: Q01DX009 (ip), vehicle: water) 201 % of control.
